Data set [1] in a line: Viability of 293-EBNA cells (dye not stated). The conditions noted are these: human.
The test system of data set [2] is HIV-LTR promoter (tat transactivation) in 293-EBNA cells. Briefly: AP reporter gene expression from HIV-LTR promoter with tat expression vector, 293-EBNA cells. The class given is cell-based, HIV; human cells. From the text: The plasmid construct, pHIV.AP, using the human immunodeficiency virus (HIV) long terminal repeat (LTR) promoter (derived from pU3R-III CAT, Sodroski et al., Science 227:171, 1985) to direct the expression of the sPAP reporter gene, was made by replacing the CMV promoter region from pCMV.AP with the HIV-LTR promoter. PHIV.AP was co-transfected with pSV2tat72, an expression vector for the 72 amino acids tat protein from HIV (Frankel and Pabo, Cell 55:1189-1193, 1988), into 293-EBNA cells (Invitrogen). The cultured cells were treated with various concentrations of the compounds. The expression of the alkaline phosphatase (AP) reporter gene in the individual cultures was measured by following change in absorbance at 405 nm of the cell conditioned media in the presence of a suitable substrate (e.g., ortho-nitrophenol phosphate) (Berger et al., Gene 66:1-10, 1988).
We set up a cell-based system with a cell line cotransfected with an expression plasmid using HIV-1-LTR promoter to direct synthesis of AP reporter gene and an expression plasmid to direct synthesis of the first 72 amino acids of tat protein. Plasmid pREP7 (Invitrogen) was converted to pREP7b by deleting 2,040 bp EBNA-1 coding region and by replacing the pBR322 origin of replication (ori) with the pBluescript KS (Stratagene) ori region. The cDNA for secreted placental alkaline phosphatase (AP) was generated by PCR with the primers (5'-[…]-3')(SEQ ID NO. 3) and (5'-[…]-3') (SEQ ID NO. 4)using the plasmid pGEM-4Z/PLAP489 (American Type Culture Collection) as the template. The 2,000 bp Xba I-Sal I fragment obtained was ligated into a Nhe I/Xho I vector derived from pREP7b to generate the plasmid pREP7b.AP. The 44 bp Xba I-Bgl II fragment from plasmid pMEP4 (Invitrogen)and the 36 bp BamH I-Kpn I fragment from pREP7 were ligated into the Xba I-Kpn I vector fragment from pREP7b.AP to generate the plasmid pMCS.AP. The 720 bp Xho I-Hind III fragment encoding the HIV-LTR promoter from the plasmid pU3R-III-CAT (Sodroski et al., Science 227:171-173, 1985) was ligated into the Xho I-Hind III vector fragment of PMCS.AP to generate the plasmid pHIV.AP. The CMV promoter was derived from the 600 bp Spe I-Asp718 I fragment from pCEP4 (Invitrogen). The 360 bp SV40 early promoter fragments were produced from pSV2tat72 (Frankel et al., Cell 55:1189-1193,1988) by PCR using the primers (5'-[…]-3') (SEQ ID NO. 5) and (5'-[…]-3') (SEQ ID NO. 6). The 480 bp phosphoglycerate kinase (PGK) promoter fragment was amplified from human placental genomic DNA (Promega, Madison, Wis.) based on published sequence (Pfeifer et al., Science 246:810-813, 1990) using the primers (5'-[…]-3') (SEQ ID NO. 7) and (5'-[…]-3') (SEQ ID NO. 8). The above fragments were ligated into the Xba I-Asp718 I vector fragment of pHIV.AP to generate pHIV2.AP, pHIV3.AP, pCMV.AP, pSVE.AP and PPGK.AP respectively. The tat-expression plasmid directed by HIV-LTR promoter, pHIV.tat, was generated by inserting the 400 bp EcoRV-HindIII fragment from pHIV.AP into the PvuII-HindIII vector fragment from pSV2tat72 (Frankel et al., Cell 55:1189-1193, 1988).
Transient transfections with various expression plasmids were performed on a human kidney embryonic cell line 293-EBNA (Invitrogen) using the cationic lipid DOTAP (Boehringer Mannheim). The cell culture media were changed 24 hr after transfection into a serum-free medium AIM V (Life Technologies) before addition of compounds or TNF-α (PeproTech) at the appropriate concentrations. AP activity measured by a colorimetric assay (Berger et al., Gene 66:1-10, 1988) was performed 19-24 hr later.

For the next data set, the system named is NFκB. Briefly: NFκB activation in 293tat cells, electrophoretic mobility shift assay. The class given is cell-based, human. The conditions noted are these: CT2576 12 μM, TNF-α 40 ng/ml or IL-1β 1 ng/ml. The method, then:
(§1) Nuclear extracts (A) from 293tat cells were tested by EMSA for activation of NFκB. A radiolabeled 40-mer covering the NFκB sequences in the HIV promoter was used as a probe. Cells were incubated with CT2576 at 12 μM, human TNF-α at 40 ng/ml or IL-1β at 1 ng/ml, or pre-incubated for 30 min. with CT2576 and then stimulated with TNF-α or IL-1β for 18 hr prior to making extracts. RNA was extracted from 293tat cells (B) after treatment with CT2576 without or with TNF-α or IL-1β for 18 hr. Northern blots analysis were performed using probes derived from AP cDNA and G3PDH cDNA as a control for normalization of mRNA level. AP activity was determined in cell supernatants from the various samples.
(§2) NFκB binding activity in nuclear extracts (Dignam et al., Nucleic Acids Res. 11:1475-1489, 1983) of cells was measured by electrophoretic mobility-shift assay (EMSA) (Carthew et al., Cell 43:439-448, 1985) using 5'-labeled double-stranded synthetic DNA with two NF-κB motifs. Northern blot analysis was performed with total RNA run on 1% agarose/formaldehyde gel and probed with ^32 P-labeled cDNA of AP and glyceraldehyde-3-phosphate dehydrogenase (G3PDH).

For data set [3], the system named is phosphatidic acid (PA) subspecies in 293tat cells. The experiment in a line: PA composition of 293tat cells by HPLC. The class given is cell-based, human. The method, then:
One must first quantitatively and qualitatively separate PAs from the other lipids found in serum by a chemical extraction of lipids and high performance liquid chromatography (HPLC) to separate and detect PAs. […] Briefly, the method of Bligh et al. involves an organic extraction of lipids from biological tissue homogenates or fluids. One volume of sample and three volumes of methanol:chloroform (2:1) are vigorously shaken for 2 min. One volume of chloroform is added and then shaken vigorously for 30 sec. One volume of water is added and then shaken vigorously for 30 sec. The mixture is filtered and the upper aqueous layer is discarded. The lower organic layer contains a mixture of lipid classes. The method of Folch et al. involves the extraction of lipids from biological tissue homogenates or body fluids. One volume of sample plus 20 volumes of chloroform:methanol (2:1) are vigorously shaken for 2 min. The mixture is filtered and an amount of 0.1 N KCl equal to 20% of the extraction mixture volume is added and the mixture is shaken vigorously for 2 min. The aqueous and organic phases are allowed to separate. The upper aqueous layer is discarded. The lower organic layer contains a mixture of lipid classes. […] This method involves separation of lipids into their major classes by normal phase (silica) high performance liquid chromatography (HPLC). A 5 micron, 25 cm×0.45 cm silica HPLC column is connected to a binary solvent delivery system followed with a UV detector. The lipid sample is injected on the column and a solvent gradient is run at 1.0 ml/min. The solvent gradient is hexane:isopropanol:water in the proportions 3:4:0.75 run isocratically for 3 min, then ramped to hexane:isopropanol:water in the proportions 3:4:1.4 in 15 min, then run isocratically at the same proportions for 15 min. Detection is at 206 nm.
One of the steps after cell activation involves the hydrolysis of phosphatidylcholine (PC), the major phospholipid of cellular membranes, by phospholipases C and D, leading to the generation of second messengers, such as PA and DG, in the signal transduction cascade.

The next data set deals with AP mRNA in 293tat cells. The experiment in a line: AP mRNA level in 293tat cells, Northern blot. The class given is cell-based, human. The conditions noted are these: with TNF-α or IL-1β. On the procedure: as §1, §2
The test system of data set [4] is HIV-LTR promoter in 293-EBNA cells. The experiment in a line: AP reporter expression in 293-EBNA cells with HIV-LTR plasmids, TNF-α stimulation. The class given is cell-based, HIV; human cells. The method, then: FIG. 14 illustrates the effect of tat and TNF-α on HIV-LTR-mediated reporter gene expression in 293-EBNA cells. The y-axis refers to the relative amount of AP reporter gene activity present in the culture media of 293-EBNA cells after transient transfection with various plasmids. Freshly trypsinized 293-EBNA cells at 10^4 cells per sample were transfected with 2 μg of either pHIV.AP, pHIV2.AP, or pHIV3.AP alone or in combination with pSV2tat72 or pHIV.tat using the cationic lipid DOTAP. The plasmids pHIV.AP, pHIV2.AP, and pHIV3.AP contain nucleotides -453 to +80, -107 to +80, and -80 to +80 of the HIV-LTR sequence respectively. Transfected cells were plated in 96-well microtiter plates at 2,000 cells per well. The cell culture media were changed 24 hr later into new medium. The samples were incubated for another 24 hr with or without TNF-α (20 ng/ml). 2 μl of medium from each well was used for AP assay. The height of each column represents the mean of triplicate samples with error bar indicating the standard deviation of the mean.
AP reporter gene activity expressed in 293-EBNA cells transfected with either pHIV.AP alone or in combination with pSV2tat72, pHIV.tat or with TNF-α stimulation is shown in FIG. 14. The plasmid pHIV.AP contains the full-length HIV-LTR sequence that extends from nucleotides -453 to +80. The expression level of AP was low using the pHIV.AP construct alone, indicating the presence of negative regulatory elements in the HIV-LTR sequence. Induction with TNF-α increased the AP expression level by about 4 fold. The AP expression level increased by 15 to 70 fold in the presence of the tat expression plasmids pHIV.tat or pSV2tat72. […] TNF-α and tat in combination enhanced the AP expression level by two fold when using the pSV2tat72 construct, and by ten fold when using the pHIV.tat construct, but the final levels of AP activity were similar.

In turn, `CCCCCCCCCCCCNCC(O)CCCCCCCn1c(=O)c2c(ncn2C)n(C)c1=O` (stereo not shown) [CT2573, 1-(9-dodecylamino-8-hydroxynonyl)-3,7-dimethylxanthine] showed a CC50 in data set [1] of around 5 µM. In addition, the “inhibition of AP expression (HIV-LTR promoter)” value in data set [2] (293-EBNA cells, HIV promoter, in words) is listed as “did not affect AP activity”. Moreover, the IC50 in data set [2] (Homo sapiens, 293-EBNA, read-out: concentration inhibiting AP expression by 50%) lay within 1000 to 4000 nM.
TNF-α: the “activation of NFκB” value with NFκB is given as “NFκB was activated”. In addition, the “increase of C14-16 saturated acyl chain PA peak” value in data set [3] (TNF-α 45 sec) is reported as “up to 80%”. For the same compound, in data set [3] (TNF-α 45 sec (from 5.4%)), the “C14-16 saturated PA peak, share of total far UV absorbing lipids after TNF-α” value is 9%. In addition, the “AP transcript / mRNA steady-state level” value in the data set on AP mRNA in 293tat cells is given as “induction of AP transcripts”. Also, the “fold enhancement of AP expression by TNF-α with pHIV.tat” value in data set [4] (TNF-α and tat in combination, pHIV.tat construct) is given as “ten”. Also, the “fold enhancement of AP expression by TNF-α with pSV2tat72” value in data set [4] (TNF-α and tat in combination, pSV2tat72 construct) is on record as “two”. Further, the “fold increase of AP expression level by TNF-α” value in data set [4] (pHIV.AP alone) was “about 4 fold”.

Source of the values: patent US5985926A, “Method for inhibiting intracellular viral replication” (Cell Therapeutics, Inc., priority 1997, dated 1999).
